Assay results as given in US20080318908A1, “USE OF GABA AND GABAB AGONISTS” (TRUSTEES OF TUFTS COLLEGE, priority 2002, published 2008).

Assays:
Assay type in all cases: cell-based, rat
islets [1] = assay: Islet total DNA content, Cyquant fluorescence assay
Description: To examine the potential function of GABAB receptor signaling in islet tissue, islets were enzymatically isolated from exocrine pancreas and studied in vitro. Islets were size-selected for these studies because of our observation that small islets (<150 μm diameter) express GABAB receptors more abundantly. Islets (equivalent to ˜10,000 cells per well of a 96 well culture plate) were incubated for 45 minutes with (or without) 100 μM GABA, washed once with growth medium M199, maintained for 4 hours at 37° C., and subsequently analyzed for total DNA content using a Cyquant (Molecular Probes) fluorescence assay. […] Large islets, by contrast, were much less responsive to GABA; increasing only by 15±4.5% in the same time period. The growth-promoting effect of GABA was mimicked by the selective GABAB receptor agonist, S-baclofen and inhibited with either 2OH-saclofen (a selective inhibitor of GABAB receptors) or the N-terminal antibody to the GABAB receptor (FIG. 4A).
To further evaluate the interactions between glucose and GABAB receptor activation, we measured GABA-mediated proliferation over a range of glucose concentrations.

islets [2] = assay: Glucose-stimulated proliferation in islets (DNA content)
Description: Others have shown that islet mass can increase by as much as 50% in just 96 hours of glucose infusion in vivo, an effect that results from increases in both cell size and cell number^15. Given that metabolism of glucose alone promotes secretion from β cells, we tested the hypothesis that glucose-stimulated proliferation in islets involves the activation of GABAB receptors by GABA released during glucose application. Islets were exposed to 5.6 mM glucose (a maximal proliferative stimulus in human islets) for 4.75 hours in the presence or absence of 2OH-saclofen or the GBR1 N-terminal antibody. Glucose promoted a small, but significant, 7±1% stimulation of control islets during this time (FIG. 5A).

islets [3] = assay: [3H]thymidine incorporation in islets; details: label present throughout the 4.75 hour experimental period
Description: [^3H]thymidine incorporation was employed as an alternative assay for DNA synthesis, with similar results to those of the fluorescence assay. The labeled nucleotide was added to the culture medium and was present throughout the 4.75 hour experimental period. GABA, and the agonist baclofen, acting via GABAB receptors produced a respective 143±19% and 115±4% increase in [^3H]thymidine incorporation (FIG. 4B).

islets [4] = assay: BrdU labeling of dividing islet cells; details: 4.75 hours; GABA-treated versus control islets
Description: To identify which cells in islets underlie the increase in DNA synthesis, cells treated with GABA were exposed to BrdU, to label the dividing cells, and compared to control cells. […] Given the brief incorporation period (4 hours following GABA exposure), such profiles imply that the responsive cells are likely to be synchronized in S phase.

spleen cells = assay: DNA content of dissociated cultured spleen, Cyquant assay; details: 100 micromolar for 45 minutes, then four hours in fresh medium at 37°
Description: An experiment to test the ability of GABA and the GABAB receptor agonist to stimulate growth of other tissues was undertaken. Rat spleen was mechanically dissociated in trypsin, washed, and plated identical to the experiments using rat islets, described above. The dissociated tissue was cultured in the presence of 100 micromolar GABA or baclofen for 45 minutes and compared to cultured but untreated dissociated spleen. After 45 minutes the media was changed and the tissue incubated in fresh medium for four hours at 37°. DNA measurements were made by the Cyquant assay by Molecular Probes.

**Q.** How did the “effect on growth-promoting effect of GABA” value (islets [1]; isolated islets with GABA, FIG. 4A, 100 μM antagonist or antibody 1:1000) turn out when `NCC(O)(CS(=O)(=O)O)c1ccc(Cl)cc1` (stereo not shown) [2OH-saclofen, reference compound] was run?
**A.** Its value is “inhibited”.

**Q.** What about the “DNA, % of DNA content measured at the beginning of the incubation period” value (islets [2]; 5.6 mM glucose for 4.75 hours in the presence of 2OH-saclofen) of the same compound?
**A.** Its value is 92±4%.

**Q.** `NCCCC(=O)O` [GABA, 4-aminobutanoic acid] was tested. Which “GABA-stimulated DNA synthesis at moderate glucose” value (islets [1]; 45 min exposure to 100 μM GABA, 5.6 mM glucose) did it give?
**A.** Its value is “peaked at moderate glucose concentrations”.

**Q.** And the “GABA-stimulated DNA synthesis at higher glucose” value (islets [1]; 45 min exposure to 100 μM GABA, 16.7 mM glucose)?
**A.** Its value is “suppressed the stimulatory effect of GABA”.

**Q.** And the “increase in DNA synthesis, large islets” value (islets [1]; large islets, 100 μM GABA 45 minutes, same 4.75 hour period)?
**A.** The value was 15±4.5%.

**Q.** What about the “increase in DNA synthesis, small islets” value (islets [1]; small islets (<150 μm diameter), 100 μM GABA 45 minutes, then 4 hours at 37° C., 4.75 hours total) of the same compound?
**A.** The value was 45%.

**Q.** What about the “increase in [3H]thymidine incorporation” value (islets [3]) of the same compound?
**A.** The value was 143±19%.

**Q.** And the BrdU incorporation (islets [4])?
**A.** Its BrdU incorporation is “detectable BrdU incorporation”.

**Q.** What about the “DNA content of cultured spleen cells versus untreated” value (spleen cells) of the same compound?
**A.** The value was “promoted an increase in the DNA content”.

**Q.** `OC[C@H]1OC(O)[C@H](O)[C@@H](O)[C@@H]1O` (stereo partly shown) [Glucose] was tested. Which “stimulation of control islets (DNA)” value (islets [2]; 5.6 mM glucose for 4.75 hours) did it give?
**A.** The value was 7±1%.

**Q.** `NC[C@@H](CC(=O)O)c1ccc(Cl)cc1` [S-baclofen, reference compound] was tested. Which “growth-promoting effect of GABA mimicked by agonist” value (islets [1]; isolated islets, FIG. 4A, 100 μM) did it give?
**A.** Its value is “mimicked”.

**Q.** With `NCC(CC(=O)O)c1ccc(Cl)cc1` (stereo not shown) [baclofen, 4-amino-3-(4-chlorophenyl)butanoic acid, reference compound] as the compound, how does the “increase in [3H]thymidine incorporation” value (islets [3]) read?
**A.** Its value is 115±4%.

**Q.** What about the “DNA content of cultured spleen cells versus untreated” value (spleen cells) of the same compound?
**A.** The value was “promoted an increase in the DNA content”.
